Laboratory results as given in patent US9168329B2, “Beta-peptides with antifungal activity” (Wisconsin Alumni Research Foundation, priority 2006, dated 2015).

How the values were obtained:
[1] = system: Candida albicans (SC5314, ATCC 24433, ATCC 90028); conditions: from NCCLS document M27-A2; cited from earlier work
[2] = system: Candida albicans (SC5314, ATCC 24433, ATCC 90028); format: cell-based
Procedure: Minimum inhibitory concentration assay. Minimum inhibitory concentrations (MIC) for the β-peptides were determined using the broth microdilution assay described by the Committee for Clinical and Laboratory Standards (formerly known as the National Committee for Clinical Laboratory Standards) (National Committee for Clinical Laboratory Standards Reference method for broth dilution antifungal susceptibility testing of yeasts: approved standard—second edition; NCCLS document M27-A2; NCCLS: Wayne, Pa., 2002). Three strains of Candida albicans were used: SC5314, ATCC 24433, and ATCC 90028. Cells were grown for 24 hours on Sabouraud dextrose agar at 30° C. After 24 hours of growth, the cells were suspended in 0.145 M saline, and the concentration was adjusted to between 1×10^6 cells/mL and 5×10^6 cells/mL in saline. The working suspension was obtained by diluting the suspension 1:1000 in RPMI 1640 (with L-glutamine and without sodium bicarbonate, Invitrogen) buffered with 0.145 mol/L 3-(N-morpholino) propanesulfonic acid (MOPS).
Twofold serial dilutions of stock solutions of α- or β-peptides or amphotericin B (Calbiochem, solubilized in dimethyl sulfoxide) were made in RPMI 1640, and 100 μL aliquots were put into 96-well plates (Falcon). An equal volume of the cell suspension was added to the wells for a total volume of 200 μL. Growth controls and sterility controls were included.
Plates were incubated at 35° C. for 48 h and then visually inspected for fungal growth. […] Experiments were performed in duplicate and repeated on at least two different days.

[3] = system: human red blood cells (hRBC); experiment: Hemolysis assay; format: cell-based
Procedure: Hemolysis assay. The hemolysis assay was performed using human red blood cells (hRBC) as described previously (Raguse, et al. J. Am. Chem. Soc. 2002, 124, 12774-12785; Porter, et al. J. Am. Chem. Soc. 2005, 127, 11516-11529). The hRBC were washed three times in TRIS-buffered saline (TBS; 10 mM TRIS, 150 mM NaCl, pH 7.2) and then diluted to a concentration of 1% (v/v) in TBS. The hRBC suspension (80 μL) was added to twofold dilutions of peptides in TBS (20 μL) in a 96-well plate (Falcon). Wells containing hRBC treated with 20 μL TBS provided a negative control, and wells with high concentrations of the peptide melittin (Sigma) served as a positive control. After incubating at 37° C. for 1 h, plates were centrifuged, and 50 μL of the supernatant was diluted with 50 μL of water in a fresh 96-well plate. The absorbance of the diluted supernatant was measured at 405 nm, and the percent hemolysis for each well was calculated from
[formula] where A405^peptide is the absorbance for the supernatant of hRBC treated with peptide, A405^buffer is the absorbance for the supernatant of hRBC in TBS, and A405^completlysis is the average absorbance for the supernatant of cells treated with melittin at concentrations of 50-400 μg/mL. Experiments were performed in duplicate on at least two different days. Biofilm Antifungal Susceptibility Testing

[4] = system: Candida albicans biofilms (ATCC 90028, ATCC 24433, SC5314); experiment: Biofilm antifungal susceptibility testing (pre-formed biofilms, XTT); format: cell-based
Procedure: The susceptibility of Candida albicans biofilms to β-peptide treatment was evaluated using procedures based on the method described by Ramage and Lopez-Ribot. (Ramage, G.; Lopez-Ribot, J. L. Methods Mol. Med. 2005, 118, 71-79). ATCC 90028, ATCC 24433, and SC5314 were grown in liquid yeast peptone dextrose (YPD) medium overnight at 30° C. The cells were washed two times with phosphate-buffered saline (PBS, pH 7.2) and resuspended in RPMI 1640 (with L-glutamine and without sodium bicarbonate, Invitrogen) buffered with 0.145 mol/L 3-(N-morpholino) propanesulfonic acid (MOPS). After adjusting the cell suspension to about 1×10^6 cells/mL in RPMI 1640, 100 μL of the cell suspension was added to selected wells of flat-bottom 96-well plates (Falcon), leaving the last column of wells empty for background controls. Plates were covered and incubated at 37° C. for 48 hours to allow biofilms to form.
After formation, biofilms were washed three times with 200 μL of PBS per well to remove nonadherent cells. Twofold serial dilutions of β-peptide in RPMI 1640 were made, and 100 μL was added to the biofilms in the first 10 columns of the 96-well plates. RPMI 1640 without antifungal (100 μL) was added to the wells in column 11 to serve as a positive growth control. Plates were covered and incubated at 37° C. for an additional 48 hours and then washed as before.
A solution of 0.5 g/L of 2,3-bis(2-methoxy-4-nitro-5-sulfo-phenyl)-2H-tetrazolium-5-carboxanilide (XTT, Sigma) was prepared, and 10 mM menadione (Sigma) in acetone was added to give a final menadione concentration of 1 μM. The XTT solution (100 μL) was added to each well containing a biofilm and to the empty column of wells. The plates were incubated for 1.5 hours at 37° C. to allow the C. albicans cells to reduce the XTT. Following incubation, 75 μL of XTT solution was removed from each well and put into a new 96-well plate to measure the absorbance at 490 nm. The reduction of growth for each concentration of β-peptide was calculated from
[formula] where A490^peptide is the average absorbance for wells containing a specified concentration of a β-peptide, A490^no drug is the average absorbance for wells with biofilms not treated with antifungal, and A490^XTT is the average absorbance for wells containing only XTT. At least three replicates were included for each combination of β-peptide and C. albicans strains. Assay for Biofilm Formation in the Presence of β-Peptide

[5] = system: C. albicans strain SC5314; experiment: Assay for biofilm formation in the presence of β-peptide; format: cell-based, Candida albicans
Procedure: The ability of Candida albicans to form biofilms in the presence of β-peptide was tested using a procedure modified from the protocol for testing biofilms pre-formed in 96-well plates. C. albicans strain SC5314 was grown in liquid yeast peptone dextrose (YPD) medium overnight at 30° C., and the cells were washed twice with PBS (pH 7.2). Cells were resuspended in RPMI 1640, and the cell concentration was adjusted to about 2×10^6 cells/mL in RPMI 1640.
Twofold serial dilutions of β-peptide and amphotericin B were prepared in RPMI 1640, and 50 μL of each dilution was added to wells of a 96-well plate. At least three replicates were included. β-Peptide-free control wells were also included. An equal volume of the cell suspension was added to give a final cell concentration of 1×10^6 cells/mL. Plates were covered and placed in a 37° C. incubator for 48 hours.
After allowing biofilms to form for 48 hours, nonadherent cells were removed from the wells by washing the biofilms three times with 200 μL of PBS per well. A 0.5 g/L XTT solution with 1 μM menadione was prepared, and 100 μL was added to each biofilm formation well and to empty wells for XTT background measurements. […] The absorbance of the solution in each well was measured at 490 nm, and the reduction of growth for biofilms grown in the presence of β-peptide and amphotericin B compared to biofilms grown in medium only was calculated from […]

C. albicans = conditions: cited from earlier work
[6] = pH 7, physiological ionic strength

C[C@@H]1[C@H](O)[C@@H](C)/C=C/C=C/C=C/C=C/C=C/C=C/C=C/[C@H](O[C@@H]2O[C@H](C)[C@@H](O)[C@H](N)[C@@H]2O)C[C@@H]2O[C@](O)(C[C@@H](O)C[C@@H](O)[C@H](O)CC[C@@H](O)C[C@@H](O)CC(=O)O[C@H]1C)C[C@H](O)[C@H]2C(=O)O [Amphotericin B]
MIC range [1]: 0.3 to 2.2 µM

CC(C)[C@@H](CC(=O)N[C@@H](CCCCN)CC(=O)N[C@H]1CCCC[C@@H]1C(=O)N[C@H](CC(=O)N[C@@H](CCCCN)CC(=O)N[C@H]1CCCC[C@@H]1C(=O)N[C@H](CC(=O)N[C@@H](CCCCN)CC(N)=O)C(C)C)C(C)C)NC(=O)[C@H]1CCCC[C@@H]1NC(=O)C[C@@H](N)Cc1ccc(O)cc1 [β-peptide 1, β^3Tyr-(ACHC-β^3Val-β^3Lys)3]
Average MIC ([2]; average over three C. albicans strains, pH 7, physiological ionic strength, Table 1 prints no unit): 16 µg/mL
antifungal activity in the planktonic NCCLS assay (in words) [2, 6]: showed activity in the planktonic assay
% Hemolysis at MIC [3]: 21%
concentration killing (nearly all cells in) pre-formed biofilms ([4]; pre-formed biofilms): 256 µg/mL
biofilm-preventing concentration relative to planktonic MIC [5]: two times its planktonic MIC
concentration completely preventing biofilm formation [5]: 32 µg/mL

CCCCCCCCCCCCCCC(=O)N[C@H](CC(=O)N[C@H]1CCCC[C@@H]1C(=O)N[C@H]1CCCC[C@@H]1C(=O)N[C@@H](CCCCN)CC(=O)N[C@H]1CCCC[C@@H]1C(=O)N[C@H]1CCCC[C@@H]1C(=O)N[C@@H](CCCCN)CC(=O)N[C@H]1CCCC[C@@H]1C(=O)N[C@H]1CCCC[C@@H]1C(=O)N[C@@H](CCCCN)CC(N)=O)Cc1ccc(O)cc1 [C15-β^3Tyr-(ACHC-ACHC-β^3Lys)3]
antifungal activity in the planktonic NCCLS assay (in words) [2, 6]: lacking activity in the planktonic assay
MIC ([2]; planktonic, strain not stated): > 128 µg/mL
reduction in biofilm growth ([4]; at the highest concentration tested): barely surpassed this mark
activity in the biofilm killing assay (in words) ([4]; pre-formed biofilms): low activity

OC(Cn1cncn1)(Cn1cncn1)c1ccc(F)cc1F [fluconazole]
MIC range [1]: 0.8 to 3.3 µM

magainin 2
concentration reducing C. albicans growth by 50% (C. albicans; pH 7, low ionic strength solutions): below 1 μg/ml
activity against C. albicans (in words) (C. albicans; pH 7, physiologic ionic strength): inactive

β^3Tyr-ACHC-(ACHC-β^3Lys)3-ACHC-ACHC
antifungal activity in the planktonic NCCLS assay (in words) [2, 6]: lacking activity in the planktonic assay
activity in the biofilm killing assay (in words) ([4]; pre-formed biofilms): low activity

β^3Tyr-(ACHC-β^3Val-β^3Lys)2
antifungal activity in the planktonic NCCLS assay (in words) [2, 6]: lacking activity in the planktonic assay
activity in the biofilm killing assay (in words) ([4]; pre-formed biofilms): low activity
